Activity calls are given as the source filed them.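 The calls were made as follows: active = compounds lowering cell viability signal with fitted half-maximal concentration at most ten times their highest tested concentration; inconclusive = flat fit with 30 to 70% signal loss, or poor fit; inactive = the rest.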 A value given as a limit tells only on which side of the number the result lay.

This experiment deals with HEK293T viability, CellTiter-Glo ATP luminescence, 48 h. The experiment is described as follows: HEK293T cell viability reduction, dose response, cytotoxicity control for LMP1 NF-kB inhibitor project, CellTiter-Glo luminescence, cherry-picks (AID 504861). For orientation: Cellular ATP, detected with luciferase, serves as a proxy for viable cell number.
In general, AC50 refers to the concentration at which the activity in the assay is half-maximal. For `Cc1oc2c(c1C(=O)c1ccc(Cl)cc1)C(=O)C(=O)c1ccccc1-2`, the AC50 was 4.37 µM.
Consider `C=CCNC(=S)N/N=C(\C)c1ccccn1`, for which the AC50 is 2.06 µM.
With `CC(C)CC(=NNC(=O)c1ccncc1)c1cc(Cl)ccc1O`, the half-maximal activity concentration (AC50) was 3.12 µM.
The value for `CCCCC(=O)NC(c1ccc(Cl)cc1)c1ccc2cccnc2c1O` (configuration not stated) was 4.35 µM; that for `Oc1cccc2ccc(Nc3ccccn3)nc12` was 8.91 µM.
As to `Clc1ccc(SCc2cc(N3CCOCC3)nc(-c3ccccn3)n2)cc1`, the AC50 is 14.9 µM.
On to `O=C(CF)N(O)c1ccc(C=Cc2ccccc2)cc1`, for which the AC50 was > 26 µM (inactive).
For the compound `O=C(N/N=C/c1ccc[nH]1)c1ccc(COc2cccc3cccnc23)cc1`, the AC50 is 3.99 µM.
With `C(=N\Nc1nc2ccccc2[nH]1)/c1cccc2cccnc12`, the half-maximal activity concentration (AC50) is 3.24 µM.
The value for `CCOc1ccc(/C=C/[N+](=O)[O-])c2ccccc12` was 11.8 µM.
The value for `CCC(C)Nc1nc(-c2ccccn2)nc2ccccc12` (configuration not stated) was 4.04 µM; that for `COc1ccccc1-c1nc(-c2ccccn2)no1` was 5.63 µM; that for `COc1ccc(NC2=NCC(Cc3ccc(Br)cc3)S2)cc1` (configuration not stated) was 26.2 µM.
For `O=C1c2ccccc2C(Nc2ccc(Cl)cc2)N1CCN1CCOCC1` (configuration not stated), the AC50 was > 26 µM (inactive).
Regarding `CC(=NNC(=S)N1CCCC1)c1ccccn1`, the half-maximal activity concentration (AC50) is 4.56 µM.
The value for `CCN1C(=O)[C@@H]2[C@@H](c3ccc(-c4ccc(Cl)c(Cl)c4)cc3)N3CCC[C@@]3(C(=O)OC)[C@@H]2C1=O` was > 26 µM (inactive); that for `Cc1cc(=O)[nH]c(NN=Cc2cc(Br)ccc2O)n1` was 3.36 µM.
For the compound `CCN(CC)C(=O)c1ccc(NC(=O)Nc2ccccc2F)cc1`, the concentration at half-maximal activity (AC50) is 2.41 µM.
The value for `CCN(CC)c1ccc(C(NC(=O)C(C)C)c2ccc3cccnc3c2O)cc1` (configuration not stated) was 4.34 µM; that for `CCc1cc2c(N3CCN(c4ccccc4)CC3)ncnc2s1` was 26.4 µM; that for `OC1(c2cccc(C(F)(F)F)c2)CCN(c2ncnc3c2[nH]c2ccc(F)cc23)CC1` was 17.8 µM.
For `Cc1csc(SCC(=O)c2cc(C)n(Cc3cccs3)c2C)n1`, the AC50 is > 26 µM (inactive).
In the case of `CCOC(=O)c1cn2nc(N3CCCCC3)ccc2n1`, the AC50 is > 26 µM (inactive).
The value for `O=C(CCl)N(c1ccc(Cl)cc1)c1c[nH]c2ccccc12` was 1.19 µM.
As to `Cc1ccc2[nH]c(C(=O)N/N=C/c3ccccc3O)c(C)c2c1`, the AC50 was 3.52 µM.
The value for `O=C(N/N=C/c1c(O)ccc2ccccc12)c1cccnc1` was 8.72 µM; that for `CS(=O)(=O)c1ncc(Cl)c(C(=O)Nc2ccc(OC(F)F)cc2)n1` was 3.2 µM; that for `CC(=NNC(=S)N1CCCCCC1)c1ccccn1` was 2.18 µM.
The value for `COc1ccc2[nH]c(-c3ccc(C)cc3)cc(=O)c2c1` was > 26 µM (inactive); that for `CCN(CC)c1ccc(/C=N/NC(=O)c2c(Cl)cnn2C)c(O)c1` was 2.81 µM; that for `C#CCN(C[C@@H]1[C@@H](OC(=O)NCCCCCC)[C@@H](OC(=O)NCCCCCC)Cn2c(=O)ccc(=O)n21)S(=O)(=O)c1ccc(C)cc1` was 4.1 µM.
The value for `COc1cnc(-c2ccccn2)nc1Sc1ccccc1Cl` was 18.8 µM; that for `O=[N+]([O-])c1c(Nc2cccc(O)c2)cc(Cl)c2nonc12` was 4.39 µM.
For the compound `CCN(CC)S(=O)(=O)c1cccc(NC(=O)Nc2cccc(C(F)(F)F)c2)c1`, the AC50 was 19.1 µM.
Regarding `O=C(N/N=C/c1cc2c3c(c1O)CCCN3CCC2)c1ccccc1O`, the concentration at half-maximal activity (AC50) is 4.17 µM.
The value for `Brc1ccc(-c2nc(-c3ccccn3)no2)o1` was > 26 µM (inactive).
The value for `O=C(N/N=C/c1c(O)ccc2ccccc12)c1ccc(Br)o1` was 4.46 µM; that for `CCCCC(=O)NC(c1ccc(OC)c(OC)c1)c1ccc2cccnc2c1O` (configuration not stated) was 4.63 µM.
`COc1cccc(/C=N/Nc2ncccc2[N+](=O)[O-])c1OC`: the half-maximal activity concentration (AC50) was 18.8 µM.
For the compound `S=C(NN=Cc1ccccn1)Nc1ccccn1`, the AC50 was 23 µM.
The value for `CC(=O)NC(c1ccc(Cl)cc1)c1ccc2cccnc2c1O` (configuration not stated) was 1.16 µM; that for `COc1ccccc1NC(=S)NN=C(C)c1ccccn1` was 0.403 µM.
The value for `CCN(CC)c1ccc(/C=N/Nc2nc3ccccc3[nH]2)c(O)c1` was 4.51 µM.
In the case of `CC(=O)OC1CCC2(C)C(CCC3C4CC=C(C(C)=O)C4(C)OC(=O)CC32)C1` (configuration not stated), the AC50 is 4.45 µM.
Consider `Oc1ccc(C=NNC(=S)Nc2ccccc2)nc1`, for which the AC50 is 4.96 µM.
The value for `Oc1ccccc1/C=N/Nc1nccnc1Cl` was > 26 µM (inactive); that for `CC1(C)N=C(N)N=C(N)N1c1ccc(CCCCc2ccccc2)cc1` was 0.406 µM; that for `CCCC(=O)NC(c1cccc([N+](=O)[O-])c1)c1ccc2cccnc2c1O` (configuration not stated) was 3.59 µM.
With `COc1cccc(/C=N/Nc2nc3ccccc3[nH]2)c1O`, the AC50 was 5.26 µM.
The value for `CC(=O)NC(c1ccc2ccccc2c1)c1ccc2cccnc2c1O` (configuration not stated) was 1.32 µM.
The value for `CCCCC(=O)NC(c1ccc(OC)cc1)c1ccc2cccnc2c1O` (configuration not stated) was 16.2 µM; that for `COc1ccc(C(NC(C)=O)c2cc(Cl)c3cccnc3c2O)cc1` (configuration not stated) was 4.88 µM; that for `CSc1ccc2c(c1)C(N1CCN(C)CC1)Cc1ccccc1S2` (configuration not stated) was 15.4 µM.
On to `CCCc1sc(N/N=C/c2ccccn2)nc1-c1ccc(Br)cc1`, for which the AC50 is 21.4 µM.
The value for `c1ccn2cc(-c3ccc4c(c3)OCCO4)nc2c1` was 16.1 µM; that for `S=C(NCCCN1CCOCC1)N1CCN(c2nc(-c3ccc(Cl)cc3)cs2)CC1` was > 26 µM (inactive); that for `O=C(Nc1nnc(SCc2ccc(F)cc2)s1)c1ccccn1` was 25.9 µM.
In the case of `O=C(N/N=C/c1ccc(O)cc1O)c1ccc(CN2C(=O)c3cccc4cccc2c34)cc1`, the AC50 is 9.41 µM.
Take `CC(=NNC(=S)Nc1cccc(Cl)c1)c1ccccn1`: the concentration at half-maximal activity (AC50) was 0.687 µM.
The value for `CCc1nc(SCC(=O)c2ccc3c(c2)OCCO3)c2ccccc2n1` was > 26 µM (inactive); that for `Nc1ccc(C(=O)N/N=C\c2cc(N=Nc3cccc4ccccc34)ccc2O)cc1` was 26.5 µM.
The value for `COc1ccc(/C=N/Nc2cc(C)nc3ccc(OC)cc23)c(OC)c1` was 5.04 µM; that for `CCN(CC)c1ccc(/C=N/NC(=O)c2cnccn2)c(O)c1` was 3.21 µM; that for `CCCC(=O)NC(c1ccc(C)cc1)c1ccc2cccnc2c1O` (configuration not stated) was 4.45 µM.
The value for `O=C(c1ccccc1)C(CCC(CN1CCOCC1)C(=O)c1ccccc1)CN1CCOCC1` (configuration not stated) was 2.57 µM; that for `O=C(Nc1ccc2c(c1)OCCO2)c1ccccn1` was 21.2 µM; that for `c1ccc(CN2CCN(c3ncnc4c3[nH]c3ccccc34)CC2)cc1` was 11.8 µM.
Consider `CCc1ccc(Nc2n[n+](-c3ccccc3)c(-c3c(Cl)cccc3Cl)s2)cc1`, for which the AC50 was 11.2 µM.
The value for `Cn1c(/C=C/c2ccccc2)nc2ccccc21` was 9.76 µM; that for `O=C(N/N=C/c1cccs1)c1n[nH]c2c1CCCC2` was 27 µM.
The value for `COc1ccc(N/N=C/c2c(C(=O)O)ccc3ccccc23)cc1` was 4.11 µM.
`C(=Cc1cnc2ccccc2n1)c1ccc2c(c1)OCO2`: the AC50 is 1.74 µM.
Consider `CC(=NNc1nc2ccccc2o1)c1ncccn1`, for which the AC50 is 16 µM.
As for `Cc1ccc(CSc2nc3ccncc3[nH]2)cc1`, the AC50 is 20.9 µM.
For `Cn1nnnc1N=N/C(=N/Nc1ccccc1)c1ccccc1`, the AC50 is 1.23 µM.
For the compound `CC(=O)NC(c1ccc(C(C)C)cc1)c1ccc2cccnc2c1O` (configuration not stated), the AC50 was 1.2 µM.
The value for `COc1ccc(C(=O)NC2CCCc3c2cnn3-c2cccc(C)c2C)c(OC)n1` (configuration not stated) was 24.1 µM; that for `Cc1cc(C)nc(SCc2ccc(C(=O)N/N=C/c3cccc(O)c3O)cc2)n1` was 20.3 µM; that for `CCOc1cccc(/C=N/Nc2ccc(S(=O)(=O)N(CC)CC)cn2)c1O` was 1.69 µM.
The value for `C[n+]1c2n(c3ccccc31)N=C(c1cc(C(C)(C)C)c(O)c(C(C)(C)C)c1)CS2` was 9.45 µM.
The value for `CCN1CCN(Cc2ccc(NC(=O)c3ccc(C)c(NC(=O)c4c[nH]c5cc(C(F)(F)F)ccc5c4=O)c3)cc2C(F)(F)F)CC1` was 4.09 µM; that for `CCC(NC(=O)Nc1nnc(C(F)(F)F)s1)(C(F)(F)F)C(F)(F)F` was 9.8 µM; that for `CC(C)OC(=O)c1ccc(NCc2cc(O)ccc2O)cc1Cl` was 6.74 µM.
`COc1ccc(C=C2CS(=O)(=O)CC(=Cc3ccc(OC)cc3)C2=O)cc1`: the AC50 was 11.8 µM.
The value for `COc1ccc(/C=C/c2nc3ccccc3n2C)cc1` was 2.27 µM; that for `COc1cc(C=C2CCCC(=Cc3ccc(OCC4CO4)c(OC)c3)C2=O)ccc1OCC1CO1` (configuration not stated) was 24.3 µM; that for `O=C1c2cccc3c([N+](=O)[O-])ccc(c23)C(=O)N1c1ccccn1` was 4.11 µM.
Take `CC(=NNC(=S)Nc1ccccc1Cl)c1ccccn1`: the concentration at half-maximal activity (AC50) is 0.922 µM.
The value for `CCN(CC)c1ccc(/C=N/Nc2nc(C)cc(=O)[nH]2)c(O)c1` was 1.41 µM.
`CN(C)c1ccc(-c2nc3ccccc3n2C)cc1`: the AC50 was 14.1 µM.
On to `O=C(N/N=C/c1sc2ccccc2c1O)c1cccc2ccccc12`, for which the half-maximal activity concentration (AC50) was 4.96 µM.
For the compound `COc1ccccc1/C=C/C(=O)c1ccc(Cl)cc1`, the concentration at half-maximal activity (AC50) was 12.4 µM.
For `COc1ccc(O)c(/C=N/Nc2nc(Nc3ccccc3)nc(-n3nc(C)cc3C)n2)c1`, the AC50 was 7.55 µM.
With `COc1ccc(-c2nc(-c3cccs3)no2)cc1`, the AC50 was > 26 µM (inactive).
The value for `COc1ccc2c(c1)/C(=C/c1cnc[nH]1)C(=O)N2` was 23.1 µM.
The value for `Cc1ccc2nc(-c3ccccn3)[nH]c2c1` was 21.6 µM.
For `CCC(=O)NC(c1cc(Cl)c2cccnc2c1O)C1CC1` (configuration not stated), the AC50 is 9.86 µM.
The value for `C=C1C(=O)C2=CC1CCC(=O)C1(C)CCC(OC(C)=O)C(C)(C)C1CC2O` (configuration not stated) was 11.3 µM.
For the compound `CCCc1nc2ccc(Br)cc2c(=O)n1-c1ccc([N+](=O)[O-])c(C(F)(F)F)c1`, the concentration at half-maximal activity (AC50) is 4.2 µM.
`CC(C)C(=O)NC(c1ccc(Cl)cc1Cl)c1ccc2cccnc2c1O` (configuration not stated): the AC50 is 3 µM.
The value for `CC(=NNc1nc2ccccc2s1)c1ncccn1` was 13.8 µM; that for `CC(=O)NC(c1cccs1)c1cc(F)c2cccnc2c1O` (configuration not stated) was 4.67 µM.

(Values after PubChem BioAssay AID504861 (Broad Institute, 2011).)
